This experiment concerns the target T1, full-length TcPINK1 (1–570) (Tribolium castaneum, UniProt D6WMX4).
T1 construct: Kinetics of phosphorylation of PINKtide and indicated variants by full-length TcPINK1 (1–570); made in house; host or cells: E. coli BL21 Codon+
T1 sequence (D6WMX4 1-570): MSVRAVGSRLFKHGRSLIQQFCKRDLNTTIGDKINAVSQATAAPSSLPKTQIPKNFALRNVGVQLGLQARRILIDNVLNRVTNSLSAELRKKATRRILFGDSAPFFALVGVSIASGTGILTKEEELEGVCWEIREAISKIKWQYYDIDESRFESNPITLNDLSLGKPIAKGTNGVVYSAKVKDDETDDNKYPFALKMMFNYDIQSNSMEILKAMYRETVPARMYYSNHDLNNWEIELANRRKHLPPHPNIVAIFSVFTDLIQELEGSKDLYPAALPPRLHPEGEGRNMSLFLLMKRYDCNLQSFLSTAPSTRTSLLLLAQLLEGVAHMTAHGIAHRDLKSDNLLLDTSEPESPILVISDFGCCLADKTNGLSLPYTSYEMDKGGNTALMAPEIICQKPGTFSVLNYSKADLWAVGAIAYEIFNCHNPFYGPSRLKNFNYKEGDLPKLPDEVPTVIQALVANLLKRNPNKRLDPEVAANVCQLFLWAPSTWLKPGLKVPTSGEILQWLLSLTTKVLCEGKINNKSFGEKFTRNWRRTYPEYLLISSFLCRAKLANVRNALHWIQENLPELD
Kind of experiment: Peptide substrate kinase assay: phosphorylation of PINKtide and variants, [γ-32P] ATP, P81 paper. The experiment is classed as biochemical. Conditions: phosphorylation of the peptide substrate by full-length TcPINK1 (1–570), kinase 1 µM, 0.1 mM [γ-32P] ATP, 30°C, n.d. = peptide phosphorylated poorly, kinetic values not determinable; for Km: 10 mM MgCl2, 50 mM Tris–HCl pH 7.5, 30 min, nonlinear regression (GraphPad Prism), similar results in at least two experiments; for Vmax: 30 min, 1 U = incorporation of 1 nmol of ATP into substrate, nonlinear regression. The method, then: For assays using peptide substrates, assays were set up in a volume of 50 µl, with all kinases at 1 µM and peptide substrates at the indicated concentrations in 50 mM Tris–HCl (pH 7.5), 0.1 mM EGTA, 10 mM MgCl2, 2 mM dithiothreitol and 0.1 mM [γ-^32P] ATP. Assays were incubated for 30 min at 30°C with shaking at 1200 r.p.m., and terminated by spotting of 40 µl of the reaction mixture onto P81 phosphocellulose paper and washing in 50 mM phosphoric acid. After extensive further washing, incorporation of [γ-^32P] ATP into substrates was quantified by Cerenkov counting. For MBP assays using P81 paper, 5 µg of MBP was used.
One unit of TcPINK1 activity was defined as the amount of enzyme that catalysed the incorporation of 1 nmol of ATP into a given substrate. Km and Vmax values were determined by analysing the phosphorylation of PINKtide and its variants at various concentrations. Km and Vmax values were calculated using the GRAPHPAD PRISM program.

The results in this text go back to paper PMC3352081, “Discovery of catalytically active orthologues of the Parkinson's disease kinase PINK1: analysis of substrate specificity and impact of mutations” (Open biology, 2011).

Several values for one entry are separate records, joined by “and”; a condition that tells them apart may be missing. Equal values may be shown once.

“KKFIpYRRSPRRR [PINKtide variant at the −5 position]”: the Km amounted to 163 µM and the Vmax was 3 U mg^−1.

Take “KKWIYRRSPRRR [PINKtide variant at the −3 position]”: the Km came out at 30 µM and the Vmax came out at 3 U mg^−1. As for “KKWIpYRRSPRRR [PINKtide, optimal peptide substrate for TcPINK1, KKWIpYRRSPRRR]”, the Michaelis-Menten constant (Km) is 493 µM and ~500 µM. In the case of “KKEIpYRRSPRRR [PINKtide variant at the −5 position]”, the Km worked out at 192 µM and the Vmax was determined as 6 U mg^−1.

With “KKAIpYRRSPRRR [PINKtide variant at the −5 position]”, the Km is 435 µM and the Vmax stood at 8 U mg^−1. As to “KKKIpYRRSPRRR [PINKtide variant at the −5 position]”, the Michaelis-Menten constant (Km) worked out at 165 µM and the Vmax was determined as 2 U mg^−1. Consider “KKWIpYRRTPRRR [PINKtide variant, phosphorylated Ser changed to Thr]”, for which the Km was 756 µM and the Vmax worked out at 8 U mg^−1.

For the substance “KKWIpTRRSPRRR [PINKtide variant at the −3 position]”, the Km was 970 µM and the Vmax is recorded as 8 U mg^−1. Consider “KKLIpYRRSPRRR [PINKtide variant at the −5 position]”, for which the Km is 381 µM and the Vmax worked out at 5 U mg^−1. Consider “KKWIpSRRSPRRR [PINKtide variant at the −3 position]”, for which the Michaelis-Menten constant (Km) was 117 µM and the Vmax is 3 U mg^−1. “KKWITRRSPRRR [PINKtide variant at the −3 position]”: the Michaelis-Menten constant (Km) amounted to 278 µM and the Vmax is listed as 3 U mg^−1.

On to “KKWIERRSPRRR [PINKtide variant at the −3 position]”, for which the Km stood at 36 µM and the Vmax was 2 U mg^−1. For the substance “KKWIFRRSPRRR [PINKtide variant at the −3 position]”, the Michaelis-Menten constant (Km) was 63 µM and the Vmax was 2 U mg^−1. For “KKWIKRRSPRRR [PINKtide variant at the −3 position]” the same measures were 50 µM and 1 U mg^−1. On to “KKWISRRSPRRR [PINKtide variant at the −3 position]”, for which the Michaelis-Menten constant (Km) was determined as 81 µM and the Vmax is reported as 3 U mg^−1.

The term Km denotes the concentration of substrate that gives half-maximal velocity.
